# Data reported in patent US6969708B1, “Process for the preparation of a high purity composition comprising (7α, 17α)- 17-hydroxy- 7-methyl- 19-nor-17-pregn-5(10)-en-20-yn-3-one” (Akzo Nobel N.V., priority 1998, dated 2005).
# Assay: Stress test at 45° C. of bulk Tibolone crystals (increase of Org OM38)
# Format: physicochemical
# Protocol: A solution of (7α, 17α)-3,3-dimethoxy-17-hydroxy-7-methyl-19-norpregn-5(10)-en20-yn-3-one (15 kg) in a mixture of pyridine (630 ml) and ethanol (315 liters) was mixed with a solution of oxalic acid (750 gr) in water (90 liters) and the mixture was stirred for 2 hours at approximately 30° C. The solution was poured out in a mixture of pyridine (1350 ml) and water (300 liters) and the resulting suspension was filtered. The crystals were washed with a mixture of water and pyridine and dried under vacuum at 40° C. to give (7α, 17α)-17-hydroxy-7-methyl-19-norpregn-5(10)-en-20-yn-3-one containing 0.6% of the corresponding (7α, 17α)-17-hydroxy-7-methyl-19-norpregn-4-en-20-yn-3-one as indicated by HPLC analysis; a stress test at 45° C. (duration 1 month) indicated a 0.4% increase of the latter compound.
# A solution of (7α, 17α)-3,3-dimethoxy-17-hydroxy-7-methyl-19-norpregn-5(10)-en-20-yn-3-one (15 kg) in a mixture of pyridine (630 ml) and ethanol (315 liters) was mixed with a solution of oxalic acid (375 gr) in water (90 liters) and the mixture was stirred for 3 hours at approximately 30° C. The solution was poured out in a mixture of pyridine (1350 ml) and water (300 liters) and the resulting suspension is filtered. The crystals are washed with a mixture of water and pyridine and allowed to age for 3–6 days at room temperature. Subsequently, the crystals were dried under vacuum at 40° C. to give (7α, 17α)-17-hydroxy-7-methyl-19-norpregn-5(10)-en-20-yn-3-one containing≦0.1% of the corresponding (7α, 17α)-17-hydroxy-7-methyl-19-norpregn-4-en-20-yn-3-one as indicated by HPLC analysis; a stress test at 45° C. (duration 1 week) indicated a<0.1% increase of the latter compound.
# The preparation as described in example 2 was repeated. (7α, 17α)-17-hydroxy-7-methyl-19-norpregn-5(10)-en-20-yn-3-one was obtained which contained 0.2% of the corresponding. (7α, 17α)-17-hydroxy-7-methyl-19-norpregn-4-en-20-yn-3-one as indicated by HPLC analysis; a stress test at 45° C. (duration 1 week) indicated a 0.1% increase of the latter compound.
SMILES,"increase of (7α, 17α)-17-hydroxy-7-methyl-19-norpregn-4-en-20-yn-3-one in stress test (duration 1 week) [%]","increase of (7α, 17α)-17-hydroxy-7-methyl-19-norpregn-4-en-20-yn-3-one in stress test (duration 1 month) [%]"
"C#C[C@]1(O)CCC2C3C(CCC21C)C1=C(CC(=O)CC1)C[C@H]3C (single isomer, unassigned) [Example 2, (7α, 17α)-17-hydroxy-7-methyl-19-norpregn-5(10)-en-20-yn-3-one]",< 0.1,–
"C#C[C@]1(O)CCC2C3C(CCC21C)C1=C(CC(=O)CC1)C[C@H]3C (single isomer, unassigned) [Example 3, (7α, 17α)-17-hydroxy-7-methyl-19-norpregn-5(10)-en-20-yn-3-one]",0.1,–
"C#C[C@]1(O)CCC2C3C(CCC21C)C1=C(CC(=O)CC1)C[C@H]3C (stereo partly drawn) [Example 1, (7α, 17α)-17-hydroxy-7-methyl-19-norpregn-5(10)-en-20-yn-3-one]",–,0.4
